In patent US20250195530A1, “POLQ INHIBITORS” (ASTRAZENECA AB, priority 2022, published 2025):

The molecules below were run on DLD-1 BRCA2−/− cells (assay: Homologous recombination synthetic lethal inhibition of proliferation, DLD-1 BRCA2-/- (Cell Titre Glo 3D)). Details: Homo sapiens, DLD-1, DLD-1 BRCA2-/- proliferation; column head only partly shown; read-out: POLQ PD Prolif Lumin (converted).
Format: cell-based
Procedure, shortened: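 Luminescent Cell Titre Glo 3D readout, taken on day 12 for homologous-recombination-deficient DLD-1 BRCA2−/− and day 7 for the wild-type control, after compound refresh on day 6. Compounds spanned 10 μM to 0.51 nM in three-fold steps; IC50 defined as 50% reduction of average maximum signal.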
Work on `Cc1ccnc(Cn2c(-c3ccc(N4CCNCC4=O)cc3Cl)nc3c(OC4(C)CC4)ncnc32)c1` [Example T202, 1-(3-chloro-4-(6-(1-methylcyclopropoxy)-9-((4-methylpyridin-2-yl)methyl)-9H-purin-8-yl)phenyl)piperazin-2-one] yielded an IC50 of 2510 nM.
Molecule `Cc1ccnc(Cn2c(-c3ccc(C(=O)NC(C)C)cc3Cl)nc3c(OC4(C)CC4)ncnc32)c1` [Example T211, 3-chloro-N-isopropyl-4-(6-(1-methylcyclopropoxy)-9-((4-methylpyridin-2-yl)methyl)-9H-purin-8-yl)benzamide] has an IC50 of 501 nM.
`CC(=O)NCCc1ccc(-c2nc3c(OC4(C)CC4)ncnc3n2Cc2cc(C)ccn2)c(Cl)c1` [Example T212, N-(3-chloro-4-(6-(1-methylcyclopropoxy)-9-((4-methylpyridin-2-yl)methyl)-9H-purin-8-yl)phenethyl)acetamide] was tested, and the IC50 was 398 nM.
With `CCNC(=O)Cc1ccc(-c2nc3c(OC4(C)CC4)ncnc3n2Cc2cc(C)ccn2)c(Cl)c1` [Example T213, 2-(3-chloro-4-(6-(1-methylcyclopropoxy)-9-((4-methylpyridin-2-yl)methyl)-9H-purin-8-yl)phenyl)-N-ethylacetamide] the IC50 was 251 nM.
`CNC(=O)CCc1ccc(-c2nc3c(OC4(C)CC4)ncnc3n2Cc2cc(C)ccn2)c(Cl)c1` [Example T214, 3-(3-chloro-4-(6-(1-methylcyclopropoxy)-9-((4-methylpyridin-2-yl)methyl)-9H-purin-8-yl)phenyl)-N-methylpropanamide] was tested, and the IC50 was 316 nM.
For `Cc1ccnc(Cn2c(-c3ccc(OCC(=O)N(C)C)cc3Cl)nc3c(OC4(C)CC4)ncnc32)c1` [Example T216, 2-(3-chloro-4-(6-(1-methylcyclopropoxy)-9-((4-methylpyridin-2-yl)methyl)-9H-purin-8-yl)phenoxy)-N,N-dimethylacetamide], the IC50 was 316 nM.
With `Cc1ccnc(Cn2c(-c3ccc(C(=O)NCCCO)cc3Cl)nc3c(OC4(C)CC4)ncnc32)c1` [Example T217, 3-chloro-N-(3-hydroxypropyl)-4-(6-(1-methylcyclopropoxy)-9-((4-methylpyridin-2-yl)methyl)-9H-purin-8-yl)benzamide] the IC50 was 1000 nM.
Work on `Cc1ccnc(Cn2c(-c3ccc(C(=O)NC[C@H](C)O)cc3Cl)nc3c(OC4(C)CC4)ncnc32)c1` [Example T218, (S)-3-chloro-N-(2-hydroxypropyl)-4-(6-(1-methylcyclopropoxy)-9-((4-methylpyridin-2-yl)methyl)-9H-purin-8-yl)benzamide] yielded an IC50 of 631 nM.
For `CC(=O)NCCOc1ccc(-c2nc3c(OC4(C)CC4)ncnc3n2Cc2cc(C)ccn2)c(Cl)c1` [Example T219, N-(2-(3-chloro-4-(6-(1-methylcyclopropoxy)-9-((4-methylpyridin-2-yl)methyl)-9H-purin-8-yl)phenoxy)ethyl)acetamide], the IC50 was 251 nM.
`Cc1ccnc(Cn2c(-c3ccc(C(=O)N(C)CCO)cc3Cl)nc3c(OC4(C)CC4)ncnc32)c1` [Example T220, 3-chloro-N-(2-hydroxyethyl)-N-methyl-4-(6-(1-methylcyclopropoxy)-9-((4-methylpyridin-2-yl)methyl)-9H-purin-8-yl)benzamide] was tested, and the IC50 was 3160 nM.
`CCNC(=O)COc1ccc(-c2nc3c(OC4(C)CC4)ncnc3n2Cc2cc(C)ccn2)c(Cl)c1` [Example T221, 2-(3-chloro-4-(6-(1-methylcyclopropoxy)-9-((4-methylpyridin-2-yl)methyl)-9H-purin-8-yl)phenoxy)-N-ethylacetamide] gave an IC50 of 316 nM.
Molecule `COC(=O)NCCc1ccc(-c2nc3c(OC4(C)CC4)ncnc3n2Cc2cc(C)ccn2)c(Cl)c1` [Example T222, methyl (3-chloro-4-(6-(1-methylcyclopropoxy)-9-((4-methylpyridin-2-yl)methyl)-9H-purin-8-yl)phenethyl)carbamate] has an IC50 of 200 nM.
With `Cc1ccnc(Cn2c(-c3ccc(CCNC(=O)CO)cc3Cl)nc3c(OC4(C)CC4)ncnc32)c1` [Example T223, N-(3-chloro-4-(6-(1-methylcyclopropoxy)-9-((4-methylpyridin-2-yl)methyl)-9H-purin-8-yl)phenethyl)-2-hydroxyacetamide] the IC50 was 501 nM.
`Cc1ccnc(Cn2c(-c3ccc(CC(=O)NCCO)cc3Cl)nc3c(OC4(C)CC4)ncnc32)c1` [Example T224, 2-(3-chloro-4-(6-(1-methylcyclopropoxy)-9-((4-methylpyridin-2-yl)methyl)-9H-purin-8-yl)phenyl)-N-(2-hydroxyethyl)acetamide] showed an IC50 of 1000 nM.
Molecule `Cc1ccnc(Cn2c(-c3ccc(OCC(=O)NCCO)cc3Cl)nc3c(OC4(C)CC4)ncnc32)c1` [Example T226, 2-(3-chloro-4-(6-(1-methylcyclopropoxy)-9-((4-methylpyridin-2-yl)methyl)-9H-purin-8-yl)phenoxy)-N-(2-hydroxyethyl)acetamide] has an IC50 of 158 nM.
For `Cc1ccnc(Cn2c(-c3ccc(OCCNC(=O)CO)cc3Cl)nc3c(OC4(C)CC4)ncnc32)c1` [Example T227, N-(2-(3-chloro-4-(6-(1-methylcyclopropoxy)-9-((4-methylpyridin-2-yl)methyl)-9H-purin-8-yl)phenoxy)ethyl)-2-hydroxyacetamide], the IC50 was 316 nM.
`COC(=O)NCCOc1ccc(-c2nc3c(OC4(C)CC4)ncnc3n2Cc2cc(C)ccn2)c(Cl)c1` [Example T228, methyl (2-(3-chloro-4-(6-(1-methylcyclopropoxy)-9-((4-methylpyridin-2-yl)methyl)-9H-purin-8-yl)phenoxy)ethyl)carbamate] showed an IC50 of 126 nM.

Same assay, conditions: Homo sapiens, DLD-1, first proliferation column (c5); DLD-1 BRCA2-/-; read-out: POLQ PD Prolif Lumin (converted)
`Cc1ccnc(Cn2c(-c3ccc(C(=O)N4CC(O)C4)cc3Cl)nc3c(OC4(C)CC4)ncnc32)c1` [Example T180, (3-chloro-4-(6-(1-methylcyclopropoxy)-9-((4-methylpyridin-2-yl)methyl)-9H-purin-8-yl)phenyl)(3-hydroxyazetidin-1-yl)methanone] was tested, and the IC50 was 1000 nM.
In the case of `Cc1ccnc(Cn2c(-c3ccc(N4CCOCC4=O)cc3Cl)nc3c(OC4(C)CC4)ncnc32)c1` [Example T182, 4-(3-chloro-4-(6-(1-methylcyclopropoxy)-9-((4-methylpyridin-2-yl)methyl)-9H-purin-8-yl)phenyl)morpholin-3-one], the IC50 is reported as 631 nM.
Molecule `Cc1ccnc(Cn2c(-c3ccc(O[C@H]4CNC(=O)C4)cc3Cl)nc3c(OC4(C)CC4)ncnc32)c1` [Example T183, (R)-4-(3-chloro-4-(6-(1-methylcyclopropoxy)-9-((4-methylpyridin-2-yl)methyl)-9H-purin-8-yl)phenoxy)pyrrolidin-2-one] has an IC50 of 398 nM.
Work on `Cc1ccnc(Cn2c(-c3ccc(O[C@@H]4CNC(=O)C4)cc3Cl)nc3c(OC4(C)CC4)ncnc32)c1` [Example T184, (S)-4-(3-chloro-4-(6-(1-methylcyclopropoxy)-9-((4-methylpyridin-2-yl)methyl)-9H-purin-8-yl)phenoxy)pyrrolidin-2-one] yielded an IC50 of 251 nM.
Molecule `Cc1ccnc(Cn2c(-c3ccc(OC[C@H]4CNC(=O)O4)cc3Cl)nc3c(OC4(C)CC4)ncnc32)c1` [Example T188, (R)-5-((3-chloro-4-(6-(1-methylcyclopropoxy)-9-((4-methylpyridin-2-yl)methyl)-9H-purin-8-yl)phenoxy)methyl)oxazolidin-2-one] has an IC50 of 501 nM.
Work on `CC1(Oc2ncnc3c2nc(-c2ccc(OCCC(=O)NS(C)(=O)=O)cc2Cl)n3Cc2cccc(Cl)c2)CC1` [Example T189, 3-(3-chloro-4-(9-(3-chlorobenzyl)-6-(1-methylcyclopropoxy)-9H-purin-8-yl)phenoxy)-N-(methylsulfonyl)propanamide] yielded an IC50 of 3980 nM.
`Cc1ccnc(Cn2c(-c3ccc(C(=O)NC[C@H](C)F)cc3Cl)nc3c(OC4(C)CC4)ncnc32)c1` [Example T190, (S)-3-chloro-N-(2-fluoropropyl)-4-(6-(1-methylcyclopropoxy)-9-((4-methylpyridin-2-yl)methyl)-9H-purin-8-yl)benzamide] showed an IC50 of 398 nM.
For `Cc1ccnc(Cn2c(-c3ccc(C(=O)NCCCF)cc3Cl)nc3c(OC4(C)CC4)ncnc32)c1` [Example T191, 3-chloro-N-(3-fluoropropyl)-4-(6-(1-methylcyclopropoxy)-9-((4-methylpyridin-2-yl)methyl)-9H-purin-8-yl)benzamide], the IC50 was 398 nM.
Work on `Cc1ccnc(Cn2c(-c3ccc(OCC4COC4)cc3Cl)nc3c(OC4(C)CC4)ncnc32)c1` [Example T193, 8-(2-chloro-4-(oxetan-3-ylmethoxy)phenyl)-6-(1-methylcyclopropoxy)-9-((4-methylpyridin-2-yl)methyl)-9H-purine] yielded an IC50 of 251 nM.
Molecule `Cc1ccnc(Cn2c(-c3ccc(OC[C@H]4CCO4)cc3Cl)nc3c(OC4(C)CC4)ncnc32)c1` [Example T194, (R)-8-(2-chloro-4-(oxetan-2-ylmethoxy)phenyl)-6-(1-methylcyclopropoxy)-9-((4-methylpyridin-2-yl)methyl)-9H-purine] has an IC50 of 251 nM.
For `CNC(=O)COc1ccc(-c2nc3c(OC4(C)CC4)ncnc3n2CCc2ccccc2)c(Cl)c1` [Example T195, 2-(3-chloro-4-(6-(1-methylcyclopropoxy)-9-phenethyl-9H-purin-8-yl)phenoxy)-N-methylacetamide], the IC50 was 1260 nM.
`Cc1ccnc(Cn2c(-c3ccc(O[C@H]4CCOC4)cc3Cl)nc3c(OC4(C)CC4)ncnc32)c1` [Example T196, (S)-8-(2-chloro-4-((tetrahydrofuran-3-yl)oxy)phenyl)-6-(1-methylcyclopropoxy)-9-((4-methylpyridin-2-yl)methyl)-9H-purine] gave an IC50 of 100 nM.
`Cc1ccnc(Cn2c(-c3ccc(OCC4(O)COC4)cc3Cl)nc3c(OC4(C)CC4)ncnc32)c1` [Example T200, 3-((3-chloro-4-(6-(1-methylcyclopropoxy)-9-((4-methylpyridin-2-yl)methyl)-9H-purin-8-yl)phenoxy)methyl)oxetan-3-ol] showed an IC50 of 316 nM.
With `Cc1ccnc(Cn2c(-c3ccc(N4CCNC(=O)C4)cc3Cl)nc3c(OC4(C)CC4)ncnc32)c1` [Example T201, 4-(3-chloro-4-(6-(1-methylcyclopropoxy)-9-((4-methylpyridin-2-yl)methyl)-9H-purin-8-yl)phenyl)piperazin-2-one] the IC50 was 501 nM.
